# Experimental data as given in US8309577B2, “Quinuclidine compounds as α-7 nicotinic acetylcholine receptor ligands” (Bristol-Myers Squibb Company, priority 2008, dated 2012).
# Like-named read-outs stand apart in the source and are kept apart here.
# Biological target: T1, α-7 nicotinic acetylcholine receptor channel expressed in HEK 293 cells (Rattus norvegicus, UniProt Q05941)
# T1 construct: expressed in transfected cells
# Experiment: Ca2+-sensitive fluorescence-based FLIPR assay, α7 nicotinic ACh receptor channel function (agonist)
# Format: cell-based
# Protocol: I) α7 Nicotinic Acetycholine Receptor Binding. Membranes were prepared for binding using HEK293 cells stably expressing the rat α7 nicotinic acetycholine receptor (rat α7 nAChR). Cells were homogenized at 4° C. in hypotonic lysis buffer consisting of 10 mM Tris (pH 7.4), 5 mM EDTA and protease inhibitors and centrifuged at 32000×g for 20 minutes. The pellet was washed once in membrane wash buffer consisting of 50 mM Tris (pH 7.4), 1 mM EDTA and protease inhibitors and centrifuged at 32000×g for 20 minutes. This pellet was then resuspended in assay buffer consisting 50 mM KH2PO4 (pH 7.4 at 25° C.), 1 mM EDTA, 0.005% Triton-X 100 and 0.1% (v/v) Sigma Protease Inhibitor Cocktail. Aliquots were then frozen in dry ice/ethanol and kept at −80° C. until the day of the assay. II) A Ca^2+-Sensitive, Fluorescence-Based Assay α-7 for Nicotinic Acetylcholine Receptor Channel Function In Mammalian Cells (“FLIPR”). Summary: Lead compounds are evaluated for agonist activity at […], α3β4, […], and α1β1δ1ε sub-types of nicotinic ACh receptor ion channels expressed in mammalian HEK 293 cells. Agonist potency and efficacy values are determined from kinetic fluorescence Ca^2+ influx measurements made using a 384 well FLIPR (Fluorescence Image Plate Reader). […] In this assay, channel expressing HEK cell lines seeded in 384 well assay plates are loaded with a membrane permeant fluorescent Ca^2+ indicator dye, whose 510 nm green emission signal increases in response to elevation of intracellular Ca^2+ concentration. The basal fluorescence from the cells is monitored in real time, followed by the acute addition of test compounds.
# Materials and Methods: Reagents: The acetomethoxy (AM) ester of the Ca^2+ indicator dye Fluo-4 was obtained from InVitrogen, (Carlsbad, Calif.). Acetylcholine and all buffer constituents were purchased from Sigma Chemical Company, St. Louis, Mo. G418 and Minimal Essential Medium were purchased from InVitrogen Life Technologies, Carlsbad, Calif. Fetal bovine serum was purchased from (InVitrogen, Carlsbad, Calif.).
# Cell Culture: HEK-293 cells were grown in Minimal Essential Medium containing 10% (v/v) fetal bovine serum at 37° C. in a 5% CO2 incubator. HEK-293 cells stably expressing the ion channels were grown in the same medium with the addition of 500 μg/ml G418.
# Ca^2+ flux assays of Ca^2+ channels expressed in HEK-293 cells: HEK-293 cells expressing the ion channels of interest were plated in 384 well, black-walled, clear-bottomed, poly-D-lysine coated plates at a density of ˜20,000 cells/well in 20 μl of Minimal Essential Medium containing 10% (v/v) fetal bovine serum and incubated for 2 days at 29° C. in a 5% CO2 incubator. Prior to assay, cells were loaded with the Fluo-4 AM ester. […] Dye loading was allowed to proceed for 90 minutes at room temperature at which time the dye loading solution was removed and replaced with 40 μl/well of Hanks buffer. Cells loaded with dye were loaded onto a FLIPR384 (Molecular Devices, Sunnyvale, Calif.). Fluo-4 dye was excited using the 488 nm line of an argon laser. Emission was filtered using a 540+/−30 nm bandpass filter. For evaluation of the effects of test compounds using the Ca^2+ flux assay, compounds to be tested were provided in assay ready plates. For nicotinic receptor ion channel expressing cells, the assay was initiated by the addition of 20 μl/well of Hanks buffer containing test compounds. For all assays, data were collected at 1 Hz for 10 seconds (baseline), at which time the compound containing stimulus buffers are added, and further measurements collected at 0.33 Hz for 3 min.
# Data Analysis: The statistical robustness of the nicotinic receptor Ca^2+ flux assays is determined from blanks and totals wells. […] The raw fluorescence units data files generated on the FLIPR plate reader are automatically exported and processed by in-house data analysis tools.
# [1] = FLIPR α7 activity rating (EC50, nM), Table 1, HEK 293 cells, agonist Ca2+ flux
# [2] = FLIPR α7 (EC50, nM), Table 1, HEK 293 cells, agonist Ca2+ flux
# T1 sequence (Q05941 23-502): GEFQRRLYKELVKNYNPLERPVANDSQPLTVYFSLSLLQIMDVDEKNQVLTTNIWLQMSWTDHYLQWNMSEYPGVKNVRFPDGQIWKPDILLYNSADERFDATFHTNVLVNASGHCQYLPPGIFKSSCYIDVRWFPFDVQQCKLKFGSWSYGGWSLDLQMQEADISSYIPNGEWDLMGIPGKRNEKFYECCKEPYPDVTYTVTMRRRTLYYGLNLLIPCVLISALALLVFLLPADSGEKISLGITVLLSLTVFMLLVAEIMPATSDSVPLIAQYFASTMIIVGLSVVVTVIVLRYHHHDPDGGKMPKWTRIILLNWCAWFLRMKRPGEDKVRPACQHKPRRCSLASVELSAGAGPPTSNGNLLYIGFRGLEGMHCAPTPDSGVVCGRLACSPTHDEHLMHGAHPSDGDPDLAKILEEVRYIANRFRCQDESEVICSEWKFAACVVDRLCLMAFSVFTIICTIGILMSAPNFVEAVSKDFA
compound,measurement,setting,value
"Oc1ccc2nc(NC3=NCC4(CN5CCC4CC5)O3)sc2c1 (single isomer, unassigned) [Example 13a]",EC50,[1],100 to 1000 nM
"Oc1ccc2nc(NC3=NCC4(CN5CCC4CC5)O3)sc2c1 (single isomer, unassigned) [Example 13b]",EC50,[1],< 100 nM
"C1CCc2sc(NC3=NCC4(CN5CCC4CC5)O3)nc2C1 (single isomer, unassigned) [Example 14b]",EC50,[1],100 to 1000 nM
"CC(C)c1csc(NC2=NCC3(CN4CCC3CC4)O2)n1 (single isomer, unassigned) [Example 15a]",EC50,[2],6350 nM
same,EC50,[1],1000 to 100000 nM
"CC(C)c1csc(NC2=NCC3(CN4CCC3CC4)O2)n1 (single isomer, unassigned) [Example 15b]",EC50,[1],100 to 1000 nM
"c1csc(NC2=NCC3(CN4CCC3CC4)O2)n1 (single isomer, unassigned) [Example 16a]",EC50,[2],3170 nM
same,EC50,[1],1000 to 100000 nM
"c1csc(NC2=NCC3(CN4CCC3CC4)O2)n1 (single isomer, unassigned) [Example 16b]",EC50,[1],100 to 1000 nM
"COc1ccc(-c2csc(NC3=NCC4(CN5CCC4CC5)O3)n2)cc1 (single isomer, unassigned) [Example 20a]",EC50,[1],100 to 1000 nM
"COc1ccc(-c2csc(NC3=NCC4(CN5CCC4CC5)O3)n2)cc1 (single isomer, unassigned) [Example 20b]",EC50,[2],318 nM
same,EC50,"read-out: FLIPR α7 activity rating (EC50), Table 1, HEK 293 cells, agonist Ca2+ flux",100 to 1000 nM
O=C(c1ccc2nc(NC3=NCC4(CN5CCC4CC5)O3)sc2c1)N1CCCC1 (stereo not shown) [Example 3],EC50,,3840 nM
same,EC50,[1],1000 to 100000 nM
"COc1ccc2nc(NC3=NCC4(CN5CCC4CC5)O3)sc2c1 (stereo not shown) [Example 5, N-(6-Methoxybenzo[d]thiazol-2-yl)-4H-1′-azaspiro[oxazole-5,3′-bicyclo[2.2.2]octan]-2-amine]",EC50,[1],100 to 1000 nM
"Cc1cccc2sc(NC3=NCC4(CN5CCC4CC5)O3)nc12 (stereo not shown) [Example 6, N-(4-Methylbenzo[d]thiazol-2-yl)-4H-1′-azaspiro[oxazole-5,3′-bicyclo[2.2.2]octan]-2-amine]",EC50,[1],100 to 1000 nM
"Clc1ccc2nc(NC3=NCC4(CN5CCC4CC5)O3)sc2c1 (stereo not shown) [Example 9, N-(6-Chlorobenzo[d]thiazol-2-yl)-4H-1′-azaspiro[oxazole-5,3′-bicyclo[2.2.2]octan]-2-amine]",EC50,[1],100 to 1000 nM
"Cn1c(NC2=NCC3(CN4CCC3CC4)O2)nc2ccccc21 (stereo not shown) [Example 10, N-(1-methyl-1H-benzo[d]imidazol-2-yl)-4H-1′-azaspiro[oxazole-5,3′-bicyclo[2.2.2]octan]-2-amine]",EC50,[1],100 to 1000 nM
"CCOc1ccc2nc(NC3=NCC4(CN5CCC4CC5)O3)sc2c1 (stereo not shown) [Example 11, N-(6-Ethoxybenzo[d]thiazol-2-yl)-4H-1′-azaspiro[oxazole-5,3′-bicyclo[2.2.2]octan]-2-amine]",EC50,[1],100 to 1000 nM
"Cc1ccc2nc(NC3=NCC4(CN5CCC4CC5)O3)sc2c1 (stereo not shown) [Example 12, N-(6-Methylbenzo[d]thiazol-2-yl)-4H-1′-azaspiro[oxazole-5,3′-bicyclo[2.2.2]octan]-2-amine]",EC50,[1],100 to 1000 nM
"CC(=O)Nc1ccc2nc(NC3=NC[C@@]4(CN5CCC4CC5)O3)sc2c1 [Example 21, (R)—N-(2-(4H-1′-Azaspiro[oxazole-5,3′-bicyclo[2.2.2]octane]-2-ylamino)benzo[d]thiazol-6-yl)acetamide]",EC50,[1],< 100 nM
"COc1ccc2nc(NC3=NC[C@@]4(CN5CCC4CC5)O3)nn2c1 [Example 24, (R)—N-(6-Methoxy-[1,2,4]-triazolo[1,5-a]pyridin-2-yl)-4H-1′-azaspiro[oxazole-5,3′-bicyclo[2.2.2]octan]-2-amine]",EC50,[1],< 100 nM
"FC(F)(F)c1cnc(NC2=NC[C@@]3(CN4CCC3CC4)O2)cn1 [Example 25, (R)—N-(5-(Trifluoromethyl)pyrazin-2-yl)-4H-1′-azaspiro[oxazole-5,3′-bicyclo[2.2.2]octan]-2-amine]",EC50,[2],510 nM
same,EC50,[1],100 to 1000 nM
"Fc1ccc2c(NC3=NC[C@@]4(CN5CCC4CC5)O3)n[nH]c2c1 [Example 26, (R)—N-(6-Fluoro-1H-indazol-3-yl)-4H-1′-azaspiro[oxazole-5,3′-bicyclo[2.2.2]octan]-2-amine]",EC50,[1],< 100 nM
"c1ccc(-c2cncc(NC3=NC[C@@]4(CN5CCC4CC5)O3)c2)cc1 [Example 28, (R)—N-(5-Phenylpyridin-3-yl)-4H-1′-azaspiro[oxazole-5,3′-bicyclo[2.2.2]octan]-2-amine]",EC50,,4010 nM
same,EC50,[1],1000 to 100000 nM
"c1ccc(-c2cc(NC3=NC[C@@]4(CN5CCC4CC5)O3)ccn2)cc1 [Example 29, (R)—N-(2-Phenylpyridin-4-yl)-4H-1′-azaspiro[oxazole-5,3′-bicyclo[2.2.2]octan]-2-amine]",EC50,[1],100 to 1000 nM
"c1ccc(-c2cccc(NC3=NC[C@@]4(CN5CCC4CC5)O3)n2)cc1 [Example 30, (R)—N-(6-Phenylpyridin-2-yl)-4H-1′-azaspiro[oxazole-5,3′-bicyclo[2.2.2]octan]-2-amine]",EC50,[1],100 to 1000 nM
"Cn1nc(NC2=NC[C@@]3(CN4CCC3CC4)O2)c2ccc(OC(F)F)cc21 [Example 31, (R)—N-(6-(Difluoromethoxy)-1-methyl-1H-indazol-3-yl)-4H-1′-azaspiro[oxazole-5,3′-bicyclo[2.2.2]octan]-2-amine]",EC50,[1],100 to 1000 nM
"FC(F)Oc1ccc2nc(NC3=NC[C@@]4(CN5CCC4CC5)O3)sc2n1 [Example 32, (R)—N-(5-(Difluoromethoxy)thiazolo[5,4-b]pyridin-2-yl)-4H-1′-azaspiro[oxazole-5,3′-bicyclo[2.2.2]octan]-2-amine]",EC50,[1],100 to 1000 nM
"c1nc(N2CCCC2)cnc1NC1=NC[C@@]2(CN3CCC2CC3)O1 [Example 34, (R)—N-(5-(Pyrrolidin-1-yl)pyrazin-2-yl)-4H-1′-azaspiro[oxazole-5,3′-bicyclo[2.2.2]octan]-2-amine]",EC50,[1],1000 to 100000 nM
"O=C1CCCN1c1cnc(NC2=NC[C@@]3(CN4CCC3CC4)O2)cn1 [Example 35, (R)-1-(5-(4H-1′-Azaspiro[oxazole-5,3′-bicyclo[2.2.2]octane]-2-ylamino)pyrazin-2-yl)pyrrolidin-2-one]",EC50,,4030 nM
same,EC50,[1],1000 to 100000 nM
"c1cncc(-c2cnc(NC3=NC[C@@]4(CN5CCC4CC5)O3)cn2)c1 [Example 36, (R)—N-(5-(Pyridin-3-yl)pyrazin-2-yl)-4H-1′-azaspiro[oxazole-5,3′-bicyclo[2.2.2]octan]-2-amine]",EC50,[1],100 to 1000 nM
"COc1ccc(-c2cnc(NC3=NC[C@@]4(CN5CCC4CC5)O3)cn2)cn1 [Example 37, (R)—N-(5-(6-Methoxypyridin-3-yl)pyrazin-2-yl)-4H-1′-azaspiro[oxazole-5,3′-bicyclo[2.2.2]octan]-2-amine]",EC50,[1],1000 to 100000 nM
"COc1ccc2nc(NC3=NC[C@@]4(CN5CCC4CC5)O3)cnc2c1 [Example 38, (R)—N-(6-Methoxyquinoxalin-2-yl)-4H-1′-azaspiro[oxazole-5,3′-bicyclo[2.2.2]octan]-2-amine]",EC50,[1],< 100 nM
"FC(F)Oc1cnc(NC2=NC[C@@]3(CN4CCC3CC4)O2)nc1 [Example 39, (R)—N-(5-(Difluoromethoxy)pyrimidin-2-yl)-4H-1′-azaspiro[oxazole-5,3′-bicyclo[2.2.2]octan]-2-amine]",EC50,[1],< 100 nM
"Cc1cnc(NC2=NC[C@@]3(CN4CCC3CC4)O2)nc1C [Example 40, (R)—N-(4,5-Dimethylpyrimidin-2-yl)-4H-1′-azaspiro[oxazole-5,3′-bicyclo[2.2.2]octan]-2-amine]",EC50,[1],< 100 nM
"COc1ccc(-c2cc(NC3=NC[C@@]4(CN5CCC4CC5)O3)ncn2)cc1 [Example 42, (R)—N-(6-(4-Methoxyphenyl)pyrimidin-4-yl)-4H-1′-azaspiro[oxazole-5,3′-bicyclo[2.2.2]octan]-2-amine]",EC50,[1],< 100 nM
